In patent US5221616A, “Prevention of spontaneous complement activation in mammalian biological fluids” (Quidel Corporation, priority 1988, dated 1993):

Biological target: T1, C3 (Homo sapiens, UniProt P01024)
T1 construct: 250 μL of freshly drawn EDTA-normal human plasma (EDTA-NHP); from tissue; host or cells: normal human blood plasma (EDTA plasma; in A12 also citrate and heparin plasma)
Experiment: iC3b fragment EIA: spontaneous C3 activation in EDTA-NHP incubated with increasing concentrations of polyhydroxyl compound in water
Format: biochemical
Conditions: 22° C. for 48 hr
Method: FIG. 1. […] 250 μL of freshly drawn EDTA-normal human plasma (EDTA-NHP) was mixed with 0 to 250 μL of 4M β-D-glucose dissolved in deionized water. All reaction mixtures were brought up to a final reaction volume of 500 μL using deionized water as the diluent. Each reaction mixture was mixed thoroughly, incubated at 22° C. for 48 hr and assayed for iC3b fragment levels. A non-incubated control (-70° C.) was prepared by mixing 1 part EDTA-NHP with 1 part 4M β-D-glucose dissolved in deionized water. This control reaction mixture was stored at -70° C. until it was assayed in the iC3b fragment EIA along with the incubated experimental samples.
Several different polyhydroxyl compounds were individually dissolved in deionized water to obtain solutions of each compound at a concentration approaching saturation at 22° C. Freshly drawn EDTA-NHP was mixed with increasing concentrations of the polyhydroxyl compound to be tested keeping the final reaction volumes constant. For example, 250 μL of freshly drawn EDTA-NHP was mixed with 0 to 250 μL of the concentrated polyhydroxyl solution to be tested. All reaction mixtures were brought up to a final reaction volume of 500 μL using deionized water as the diluent. Each reaction mixture was mixed thoroughly and incubated at 22° C. for 48 hr. A non-incubated control was prepared for each experiment by mixing 1 part EDTA-NHP with 1 part of the concentrated polyhydroxyl solution to be tested. This control mixture was held at -70° C. until it was thawed out, along with the other experimental samples, and assayed for the occurrence of spontaneous complement activation. For this initial set of experiments, iC3b fragment levels were quantitated in all test samples using the Cytotech monoclonal antibody based EIA procedure. The first analyte selected to be measured was iC3b since, based on previously published data as outlined above, it was anticipated that the C3 protein would be the most susceptible to spontaneous activation upon storage of EDTA-NHP in vitro.
All of the EIA tests employed in these studies utilized solid-phase monoclonal antibody capture assay kit procedures (Cytotech, Inc., San Diego, Calif.). The procedure was basically the same for each EIA kit. Briefly, in the first step of each EIA assay, 100 μL of standards, controls and diluted test specimens were incubated at 22° C., i.e., room temperature, in duplicate polystyrene microtiter wells precoated with a capture monoclonal antibody which specifically reacted with the complement fragment or complex under investigation. During this first incubation period, complement fragments or complexes were bound to the monoclonal antibody coated microassay wells. A wash cycle removed unbound materials.
In the second step, 50 μL of horseradish peroxidase (HRP)-conjugated purified IgG antibody, which reacted with the captured complement fragment or complex analyte, was added to each well and incubated at 22° C. A wash cycle removed unbound conjugate.
In the third step, 100 μL of the HRP enzyme substrate ABTS (0.034% ABTS and 0.0126% H2 O2 in 100 mM sodium citrate buffer, pH 4.0) was added to each well and incubated at 22° C. The bound HRP-conjugatedantibody reacted with the ABTS substrate producing a green color which was proportional to the amount of specimen analyte bound. The HRP-enzymatic reaction was stopped upon addition of 50 μL 250 mM oxalic acid. The substrate color intensity present in each well was measured at 405 nm using an automated EIA microplate reader and the analyte concentration/mL in the original test specimen was determined for each analyte from the appropriate standard curve.
iC3b EIA: The capture mouse monoclonal antibody used to coat microtiter wells for the iC3b fragment EIA was Cytotech MoAb 013III-1.1.6.1 which reacts with a neoantigenic determinant expressed on the iC3b activation fragment of human C3.

T1 sequence (P01024 672-1663 limits assumed): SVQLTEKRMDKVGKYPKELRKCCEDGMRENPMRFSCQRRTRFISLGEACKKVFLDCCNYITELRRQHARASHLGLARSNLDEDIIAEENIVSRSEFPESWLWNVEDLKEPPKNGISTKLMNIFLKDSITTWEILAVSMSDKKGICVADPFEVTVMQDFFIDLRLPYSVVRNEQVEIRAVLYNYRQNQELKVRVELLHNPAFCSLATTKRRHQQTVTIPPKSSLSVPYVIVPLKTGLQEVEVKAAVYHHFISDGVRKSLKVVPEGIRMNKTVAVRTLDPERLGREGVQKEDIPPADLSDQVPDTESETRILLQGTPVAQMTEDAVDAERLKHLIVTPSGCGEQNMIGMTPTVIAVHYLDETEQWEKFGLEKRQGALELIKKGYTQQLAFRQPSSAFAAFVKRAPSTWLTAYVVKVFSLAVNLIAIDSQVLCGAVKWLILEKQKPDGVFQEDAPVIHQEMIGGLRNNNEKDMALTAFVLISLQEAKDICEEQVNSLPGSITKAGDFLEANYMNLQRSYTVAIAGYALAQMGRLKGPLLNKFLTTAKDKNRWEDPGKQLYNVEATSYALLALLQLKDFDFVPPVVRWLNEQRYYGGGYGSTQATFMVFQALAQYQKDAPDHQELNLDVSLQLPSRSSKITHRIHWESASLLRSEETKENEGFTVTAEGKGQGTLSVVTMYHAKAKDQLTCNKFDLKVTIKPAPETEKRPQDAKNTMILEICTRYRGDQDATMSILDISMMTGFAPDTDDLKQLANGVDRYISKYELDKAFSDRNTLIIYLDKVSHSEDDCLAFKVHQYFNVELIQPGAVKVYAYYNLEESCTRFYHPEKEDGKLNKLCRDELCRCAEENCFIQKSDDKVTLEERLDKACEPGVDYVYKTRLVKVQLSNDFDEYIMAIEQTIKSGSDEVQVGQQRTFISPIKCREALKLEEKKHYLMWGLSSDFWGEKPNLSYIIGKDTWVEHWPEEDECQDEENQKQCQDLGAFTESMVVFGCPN
T1 sequence (P01024 23-667 limits assumed): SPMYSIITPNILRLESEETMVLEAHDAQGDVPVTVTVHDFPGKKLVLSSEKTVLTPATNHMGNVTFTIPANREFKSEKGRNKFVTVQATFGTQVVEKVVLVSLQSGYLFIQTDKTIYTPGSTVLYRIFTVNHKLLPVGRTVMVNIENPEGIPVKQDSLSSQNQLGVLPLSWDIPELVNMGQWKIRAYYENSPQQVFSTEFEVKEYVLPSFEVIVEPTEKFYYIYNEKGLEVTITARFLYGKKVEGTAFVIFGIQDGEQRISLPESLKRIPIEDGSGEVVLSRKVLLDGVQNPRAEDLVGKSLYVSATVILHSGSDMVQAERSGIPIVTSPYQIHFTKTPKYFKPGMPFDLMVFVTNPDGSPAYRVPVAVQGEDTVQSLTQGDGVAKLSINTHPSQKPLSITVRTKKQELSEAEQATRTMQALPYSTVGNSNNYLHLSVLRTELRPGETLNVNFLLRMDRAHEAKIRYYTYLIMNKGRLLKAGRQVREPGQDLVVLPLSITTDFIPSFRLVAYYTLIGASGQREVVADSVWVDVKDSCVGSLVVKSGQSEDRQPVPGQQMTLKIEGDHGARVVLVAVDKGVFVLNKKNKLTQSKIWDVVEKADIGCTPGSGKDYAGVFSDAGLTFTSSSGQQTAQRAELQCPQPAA

OC[C@H]1O[C@@H](O)[C@H](O)[C@@H](O)[C@@H]1O [β-D-glucose]
final concentration that completely prevented spontaneous iC3b fragment production (compared with -70° C. control): ≥ 1.3 M
spontaneous iC3b fragment production (increasing final concentrations of compound (galactose up to 2M)): inhibited with increasing concentrations
